In patent US4097496A, “Novel cyclopentane derivatives” (Hoechst Aktiengesellschaft, priority 1973, dated 1978):
Converted amounts (≈) assume the structure as drawn.

What was measured:
[1] = system: PGF2α-contraction in the isolated guinea pig uterus; experiment: Inhibition of the PGF2α-contraction in the isolated guinea pig uterus; settings: Cavia porcellus, agonist PGF2α 40 ng/ml, deJalon solution, probit analysis
Experimental: (§1) It is surprising that the compounds of the formula I which are closely related to the natural prostaglandins with regard to their structure, as it has been mentioned above, have a strong anti-prostaglandin effect. If, for example, a solution of the compounds of the invention in water is added to the isolated guinea pig ileum or uterus and if for example prostaglandin E2 or F2 α is added to this solution, in concentrations which normally stimulate the isolated ileum or the isolated uterus to strong contractions, only a weaker or no spasmogenic effect of the prostaglandins E2 and F2 α can be detected - depending on the concentrations used.
As test animals were used brown guinea pigs, males and females having a weight of from about 300 to 400 g. The animals were killed by a blow into the neck, the terminal ileum was rapidly taken off and put into a Petri dish containing a pre-heated Tyrode's solution. The intestine was decomposed into four equal sections (2 to 3 cm). […] This latter contraction was considered as being 100%, and the contraction determined by the compound of the invention acting as antagonist was expressed in percent with regard to this basic contraction. […]
The average concentration was determined by means of the probit analysis. The straight line resulting from this method allowed to read the average inhibiting concentration (Table I). […]

[2] = system: PGE2-contraction in the isolated guinea pig ileum; experiment: Inhibition of the PGE2-contraction in the isolated guinea pig ileum; settings: Cavia porcellus, agonist PGE2 200 ng/ml; for IC50: 3 min pre-treatment, probit analysis, 37° C; for inhibition at 10 µg/mL: at 10 μg/ml
Experimental: as §1
As test animals were used brown guinea pigs, males and females having a weight of from about 300 to 400 g. The animals were killed by a blow into the neck, the terminal ileum was rapidly taken off and put into a Petri dish containing a pre-heated Tyrode's solution. The intestine was decomposed into four equal sections (2 to 3 cm). Then the individual sections were put into an organ liquor filled with a Tyrode's solution and bubbled through by oxygen and they were fixed. The bath temperature was 37° C. Composition of the Tyrode's solution: […], 0.2 g of KCl, 0.55 g of CaCl2, 0.2 g of Mg Cl2, 1.0 g of glucose, 1.0 g of NaHCO3 in 1000 ml of distilled water. The free end was connected with the writing lever by a thread. The charge of the thread was 1 g. After a 30 minutes' recovery time the test itself was initiated. The test consisted in a pre-treatment with the antagonist to be tested and in the administration of the agonist three minutes later. The resulting contraction was compared with the initial contraction achieved by the administration of the agonist only. This latter contraction was considered as being 100%, and the contraction determined by the compound of the invention acting as antagonist was expressed in percent with regard to this basic contraction. All substances were dissolved in absolute alcohol and further diluted to their final concentrations with phosphate buffer (pH 7.4). As agonists were used prostaglandin E2 (UPJOHN) in the isolated ileum, and PGF2 in the isolated uterus.
The average concentration was determined by means of the probit analysis. The straight line resulting from this method allowed to read the average inhibiting concentration (Table I).
Inhibition of the PGE2 - and PGF2α -contraction in the isolated guinea pig ileum or uterus

[3] = read-out: inhibition in percent for the corresponding dosis

IC50 [1] [µg/mL]	IC50 [2] [µg/mL]	SMILES	inhibition at 10 µg/mL [2, 3] [%]	inhibition at 5 µg/mL ([2]; at 5 μg/ml, read-out: inhibition in percent for the corresponding dosis) [%]
–	< 10	CCCCCC(/C=C/C1CCC(O)C1(CCCC(C)CCC(=O)O)C(=O)OCC)OC1CCCCO1 (stereo not drawn) [Example 8, (5RS,3"SR)-1-(6'-Carboxy-4'-methylhexyl)-2-hydroxy-5-[3"-(2'"-tetrahydropyranyloxy)-trans-1"-octenyl]-cyclopentane-carboxylic acid ethyl ester]	80	–
–	< 10	CCCCCC(/C=C/C1CCC(O)C1(CCCCC(C)CC(=O)O)C(=O)OCC)OC1CCCCO1 (stereo not drawn) [Example 11, (5RS,3"SR)-1-(6'-Carboxy-5'-methylhexyl)-2-hydroxy-5-[3"-(2'"-tetrahydropyranyloxy)-trans-1"-octenyl]-cyclopentane-carboxylic acid ethyl ester]	80	–
–	4.6 (≈ 10.4 µM)	CCCCCC(O)/C=C/C1CCC(O)C1(C/C=C/COCC(=O)OCC)C(=O)OCC (stereo not shown) [Example 36]	–	–
–	< 10	CCCCCC(O)/C=C/C1CCC(O)C1(C/C=C/COCC(=O)O)C(=O)OCC (stereo not drawn) [Example 37, (5RS,3"SR)-1-(6'-Carboxy-5'-oxa-trans-2'-hexenyl)-2-hydroxy-5-(3"-hydroxy-trans-1"-octenyl)-cyclopentanecarboxylic acid ethyl ester]	65	–
–	< 10	CCCCCC(/C=C/C1CCC(=O)C1(Cc1ccccc1CCCC(=O)OCC)C(=O)OCC)OC1CCCCO1 (stereo not drawn) [Example 44, (5RS,3'"SR)-1-[2'-(3"-Ethoxycarbonylpropyl)-benzyl]-2-oxo-5-[3'"-(2""-tetrahydropyranyloxy)-trans-1'"-octenyl]-cyclopentane-carboxylic acid ethyl ester]	40	–

The next lines start with the molecule.

SMILES	IC50 [1] [µg/mL]	IC50 [2] [µg/mL]	inhibition at 10 µg/mL [2, 3] [%]	inhibition at 5 µg/mL ([2]; at 5 μg/ml, read-out: inhibition in percent for the corresponding dosis) [%]
CCCCCC(O)/C=C/C1CCC(O)C1(CCCCCCC(=O)O)C(=O)OCC (stereo not drawn) [Example 3, (5 RS, 3" SR)-1-(6'-carboxyhexyl)-2-hydroxy-5-(3"-hydroxy-trans-1"-octenyl)-cyclopentane-carboxylic acid ethyl ester]	2 (≈ 4.85 µM)	–	–	–
CCCCCC(/C=C/C1CCC(=O)C1(CCC(C)CCCC(=O)OCC)C(=O)OCC)OC1CCCCO1 (stereo not drawn) [Example 4, (5 RS, 3" SR)-1-(6'-Ethoxycarbonyl-3'-methylhexyl)-2-oxo-5-[3"-(2"'-tetrahydropyranyloxy)-trans-1"-octenyl]-cyclopentane-carboxylic acid ethyl ester]	–	1.2 (≈ 2.24 µM)	–	–
CCCCCC(/C=C/C1CCC(O)C1(CCC(C)CCCC(=O)O)C(=O)OCC)OC1CCCCO1 (stereo not drawn) [Example 5, (5 RS, 3" SR)-1-(6'-Carboxy-3'-methylhexyl)-2-hydroxy-5-[3"-(2"'-tetrahydropyranyloxy)-trans-1"-octenyl]-cyclopentane-carboxylic acid ethyl ester]	10 (≈ 19.6 µM)	–	–	–
CCCCCC(/C=C/C1CCC(=O)C1(CCCCC(C)CC(=O)OCC)C(=O)OCC)OC1CCCCO1 (stereo not drawn) [Example 10, (5RS,3"SR)-1-(6'-Ethoxycarbonyl-5'-methylhexyl)-2-oxo-5-[3"-(2'"-tetrahydropyranyloxy)-trans-1"-octenyl]-cyclopentane-carboxylic acid ethyl ester]	–	> 10	10	–
CCCCCC(/C=C/C1CCC(=O)C1(CCCCCC(C)C(=O)OCC)C(=O)OCC)OC1CCCCO1 (stereo not drawn) [Example 13, (5RS,3"SR)-1-(6'-Ethoxycarbonylheptyl)-2-oxo-5-[3"-(2'"-tetrahydropyranyloxy)-trans-1"-octenyl]-cyclopentane-carboxylic acid ethyl ester]	–	~5 (≈ 9.32 µM)	–	–
CCCCCC(O)/C=C/C1CCC(O)C1(CCCCOCC(=O)O)C(=O)OCC (stereo not drawn) [Example 30, (5RS,3"SR)-1-(6'-Carboxy-5'-oxahexyl)-2-hydroxy-5-[3"-hydroxy-trans-1"-octentyl]-cyclopentane-carboxylic acid ethyl ester]	–	< 5	–	80
CCCCCC(O)/C=C/C1CCC(O)C1(C/C=C\COCC(=O)O)C(=O)OCC (stereo not drawn) [Example 32, (5RS,3"SR)-1-(6'-Carboxy-5'-oxa-cis-2'-hexenyl)-2-hydroxy5-[3"-hydroxy-trans-1"-octenyl]-cyclopentane-carboxylic acid ethyl ester]	–	~5 (≈ 12.1 µM)	–	–
CCCCCC(/C=C/C1CCC(O)C1(C/C=C/COCC(=O)O)C(=O)OCC)OC1CCCCO1 (stereo not drawn) [Example 35, (5RS,3"SR)-1-(6'-Carboxy-5'-oxa-trans-2'-hexenyl)-2-hydroxy-5-[3"-(2'"-tetrahydropyranyloxy)-trans-1"-octenyl]cyclopntane-carboxylic acid ethyl ester]	–	2.3 (≈ 4.63 µM)	–	–
CCCCCC(/C=C/C1CCC(O)C1(Cc1ccccc1CCCC(=O)O)C(=O)OCC)OC1CCCCO1 (stereo not drawn) [Example 45, (5RS,3'"SR)-1-[2'-(3"-Carboxypropyl)-benzyl]-2-hydroxy-5-[3'"-(2""-tetrahydropyranyloxy)-trans-1'"-octenyl]-cyclopentane-carboxylic acid ethyl ester]	–	~10 (≈ 18.4 µM)	–	–
CCCCCC(O)/C=C/C1CCC(O)C1(Cc1ccccc1CCCC(=O)O)C(=O)OCC (stereo not drawn) [Example 46, (5RS,3'"SR)-1-[2'-(3"-Carboxypropyl)-benzyl]-2-hydroxy-5-[3'"-hydroxy-trans-1'"-octenyl]-cyclopentane-carboxylic acid ethyl ester]	–	< 10	80	–
